Reference: ChEMBL document CHEMBL5113522, “Discovery of CH7057288 as an Orally Bioavailable, Selective, and Potent pan-TRK Inhibitor” (J Med Chem, 2022)

Tests used:
[1] = target: RAF proto-oncogene serine/threonine-protein kinase (Homo sapiens, UniProt P04049); assay: Inhibition of RAF1 (unknown origin)
NIH3T3 [2] = assay: Antitumor activity against mouse NIH3T3 cells implanted in mouse assessed as tumor growth inhibition at 0.63 mg/kg, po administered once daily for 11 days and measured on day 12 relative to control; type: functional; conditions: NIH3T3, 288 h, time 12 day, read-out: TGI
CYP3A4 = CYP3A4 (Homo sapiens, UniProt P08684); assay: Induction of CYP3A4 in human hepatocytes assessed as fold induction at 1 uM using testosterone as substrate preincubated with replacement of fresh medium containing compound every 24 hrs for 72 hrs followed by substrate addition and measured after 1 hr by LC-MS/MS analysis relative to control; type: ADME, cell-based, Hepatocyte; conditions: probe testosterone, time 73 hrs, read-out: FC
[3] = target: cAMP-dependent protein kinase (PKA) (Homo sapiens, UniProt P22694+P17612+P22612); assay: Inhibition of PKA (unknown origin); type: protein assay
[4] = Volume of distribution at steady state in Wistar Hannover rat at 1 mg/kg, iv by LC-MS analysis; type: ADME, organism-based; conditions: in vivo, read-out: Vdss
[5] = target: Protein kinase C alpha type (Homo sapiens, UniProt P17252); assay: Inhibition of PKCalpha (unknown origin)
NIH3T3 [6] = assay: Antitumor activity against mouse NIH3T3 cells implanted in mouse assessed as tumor growth inhibition at 2.5 mg/kg, po administered once daily for 11 days and measured on day 12 relative to control; type: functional; conditions: NIH3T3, 288 h, time 12 day, read-out: TGI
[7] = target: Tyrosine-protein kinase JAK2 (Homo sapiens, UniProt O60674); assay: Inhibition of JAK2 (unknown origin)
[8] = AUC in Beagle dog at 1 mg/kg, po by LC-MS analysis; type: ADME, organism-based, Canis lupus familiaris; design: dose 1 mg/kg, route po; conditions: in vivo
[9] = Volume of distribution at steady state in Beagle dog at 1 mg/kg, iv by LC-MS analysis; type: ADME, organism-based, Canis lupus familiaris; conditions: in vivo, read-out: Vdss
[10] = target: Hepatocyte growth factor receptor (Homo sapiens, UniProt P08581); assay: Inhibition of MET (unknown origin)
[11] = target: Epidermal growth factor receptor (Homo sapiens, UniProt P00533); assay: Inhibition of EGFR (unknown origin)
[12] = Clearance in Beagle dog at 1 mg/kg, iv by LC-MS analysis; type: ADME, organism-based, Canis lupus familiaris; conditions: in vivo
NIH3T3 [13] = assay: Antitumor activity against mouse NIH3T3 cells implanted in mouse assessed as tumor regression at 2.5 mg/kg, po administered once daily for 11 days and measured on day 12 relative to control; type: functional; conditions: time 12 day
[14] = target: Serine/threonine-protein kinase Chk1 (Homo sapiens, UniProt O14757); assay: Inhibition of CHK1 (unknown origin)
[15] = target: BDNF/NT-3 growth factors receptor (Homo sapiens, UniProt Q16620); assay: Inhibition of TRKB (unknown origin)
[16] = target: Vascular endothelial growth factor receptor 2 (Homo sapiens, UniProt P35968); assay: Inhibition of KDR (unknown origin)
[17] = target: Receptor tyrosine-protein kinase erbB-2 (Homo sapiens, UniProt P04626); assay: Inhibition of HER2 (unknown origin)
NIH3T3 [18] = assay: Antitumor activity against mouse NIH3T3 cells implanted in mouse assessed as tumor growth inhibition at 10 mg/kg, po administered once daily for 11 days and measured on day 12 relative to control; type: functional; conditions: NIH3T3, 288 h, time 12 day, read-out: TGI
[19] = target: High affinity nerve growth factor receptor (Homo sapiens, UniProt P04629); assay: Inhibition of TRKA (unknown origin)
NIH3T3 [20] = assay: Antitumor activity against mouse NIH3T3 cells implanted in mouse assessed as tumor growth inhibition at 0.16 mg/kg, po administered once daily for 11 days and measured on day 12 relative to control; type: functional; conditions: NIH3T3, 288 h, time 12 day, read-out: TGI
[21] = Cmax in Beagle dog at 1 mg/kg, po by LC-MS analysis; type: ADME, organism-based, Canis lupus familiaris; design: dose 1 mg/kg, route po; conditions: in vivo
[22] = Half life in Wistar Hannover rat at 1 mg/kg, po by LC-MS analysis; type: ADME, organism-based; conditions: in vivo
[23] = Half life in Wistar Hannover rat at 1 mg/kg, iv by LC-MS analysis; type: ADME, organism-based; conditions: in vivo
[24] = target: RAC-alpha serine/threonine-protein kinase (Homo sapiens, UniProt P31749); assay: Inhibition of AKT1 (unknown origin)
[25] = Half life in Beagle dog at 1 mg/kg, iv by LC-MS analysis; type: ADME, organism-based, Canis lupus familiaris; conditions: in vivo
[26] = target: NT-3 growth factor receptor (Homo sapiens, UniProt Q16288); assay: Inhibition of TRKC (unknown origin)
NIH3T3 [27] = assay: Antitumor activity against mouse NIH3T3 cells implanted in mouse assessed as tumor regression at 10 mg/kg, po administered once daily for 11 days and measured on day 12 relative to control; type: functional; conditions: time 12 day
[28] = Oral bioavailability in Beagle dog at 1 mg/kg by LC-MS analysis; type: ADME, organism-based, Canis lupus familiaris; conditions: in vivo
[29] = Toxicity in mouse assessed as body weight loss at 10 mg/kg, po administered once daily for 11 days and measured on day 12; type: organism-based; conditions: in vivo, 288 h, time 12 day
[30] = Antitumor activity against human CUTO-3 cells xenografted in mouse assessed as tumor growth inhibition at 10 mg/kg, po administered once daily for 11 days and measured on day 12 relative to control; type: functional; conditions: CUTO-3, 288 h, time 12 day, read-out: TGI
[31] = Oral bioavailability in Wistar Hannover rat at 1 mg/kg by LC-MS analysis; type: ADME, organism-based; conditions: in vivo
[32] = target: Tyrosine-protein kinase Lck (Homo sapiens, UniProt P06239); assay: Inhibition of LCK (unknown origin)
[33] = Clearance in Wistar Hannover rat at 1 mg/kg, iv by LC-MS analysis; type: ADME, organism-based; conditions: in vivo
[34] = Half life in Beagle dog at 1 mg/kg, po by LC-MS analysis; type: ADME, organism-based, Canis lupus familiaris; conditions: in vivo
Insulin receptor = Insulin receptor (Homo sapiens, UniProt P06213); assay: Inhibition of INSR (unknown origin)
NIH3T3 [35] = assay: Antiproliferative activity against […] NIH3T3 cells expressing MPRIP-NTRK1 assessed as cell growth inhibition incubated for 4 to 7 days by CellTiter-Glo Luminescent Cell Viability Assay; type: functional, cell-based; conditions: Mus musculus
[36] = target: ALK tyrosine kinase receptor (Homo sapiens, UniProt Q9UM73); assay: Inhibition of ALK (unknown origin)
[37] = AUC in Wistar Hannover rat at 1 mg/kg, po by LC-MS analysis; type: ADME, organism-based; design: dose 1 mg/kg, route po; conditions: in vivo
[38] = Cmax in Wistar Hannover rat at 1 mg/kg, po by LC-MS analysis; type: ADME, organism-based; design: dose 1 mg/kg, route po; conditions: in vivo
[39] = target: Cyclin-dependent kinase 1 (Homo sapiens, UniProt P06493); assay: Inhibition of CDK1 (unknown origin)
[40] = target: Proto-oncogene tyrosine-protein kinase Src (Homo sapiens, UniProt P12931); assay: Inhibition of Src (unknown origin)
[41] = target: Fibroblast growth factor receptor 2 (Homo sapiens, UniProt P21802); assay: Inhibition of FGFR2 (unknown origin)

Sequence of RAF proto-oncogene serine/threonine-protein kinase (P04049 whole entry): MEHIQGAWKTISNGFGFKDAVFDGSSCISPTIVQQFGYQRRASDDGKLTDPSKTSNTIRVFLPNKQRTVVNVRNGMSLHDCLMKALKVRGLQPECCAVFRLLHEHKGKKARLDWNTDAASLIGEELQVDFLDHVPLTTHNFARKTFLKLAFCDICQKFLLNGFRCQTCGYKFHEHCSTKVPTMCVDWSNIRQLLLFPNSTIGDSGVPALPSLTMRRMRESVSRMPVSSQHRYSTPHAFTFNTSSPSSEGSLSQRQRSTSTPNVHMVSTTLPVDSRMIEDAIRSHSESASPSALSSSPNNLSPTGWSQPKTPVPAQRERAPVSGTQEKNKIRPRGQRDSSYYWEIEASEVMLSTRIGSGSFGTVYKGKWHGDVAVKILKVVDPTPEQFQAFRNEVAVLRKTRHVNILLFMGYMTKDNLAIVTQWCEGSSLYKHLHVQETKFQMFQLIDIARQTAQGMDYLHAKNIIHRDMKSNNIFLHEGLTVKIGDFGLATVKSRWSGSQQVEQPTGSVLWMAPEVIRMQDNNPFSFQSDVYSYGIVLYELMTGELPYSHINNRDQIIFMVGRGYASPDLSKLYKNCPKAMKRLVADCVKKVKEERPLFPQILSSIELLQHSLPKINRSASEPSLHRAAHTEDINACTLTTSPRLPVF
Sequence of High affinity nerve growth factor receptor (P04629 whole entry): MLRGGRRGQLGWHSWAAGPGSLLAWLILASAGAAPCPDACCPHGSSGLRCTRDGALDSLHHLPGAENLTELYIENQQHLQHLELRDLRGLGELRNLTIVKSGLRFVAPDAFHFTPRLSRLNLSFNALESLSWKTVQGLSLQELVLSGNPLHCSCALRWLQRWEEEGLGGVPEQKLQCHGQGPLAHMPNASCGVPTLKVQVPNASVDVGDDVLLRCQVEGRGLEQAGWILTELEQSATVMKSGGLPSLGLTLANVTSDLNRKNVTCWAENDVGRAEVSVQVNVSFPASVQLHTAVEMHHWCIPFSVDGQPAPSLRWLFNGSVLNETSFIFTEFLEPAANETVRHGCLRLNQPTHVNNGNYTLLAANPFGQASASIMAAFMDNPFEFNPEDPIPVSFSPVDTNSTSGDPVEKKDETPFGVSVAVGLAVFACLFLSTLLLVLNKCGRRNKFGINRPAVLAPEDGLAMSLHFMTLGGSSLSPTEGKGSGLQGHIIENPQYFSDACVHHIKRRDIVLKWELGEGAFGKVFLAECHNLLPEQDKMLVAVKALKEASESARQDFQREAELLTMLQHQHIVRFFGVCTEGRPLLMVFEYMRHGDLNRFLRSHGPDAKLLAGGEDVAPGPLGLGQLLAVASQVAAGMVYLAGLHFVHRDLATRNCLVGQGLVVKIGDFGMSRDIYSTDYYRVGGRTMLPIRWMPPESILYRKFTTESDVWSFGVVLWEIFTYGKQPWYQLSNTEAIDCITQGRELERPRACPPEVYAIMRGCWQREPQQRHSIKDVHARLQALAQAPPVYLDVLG
Sequence of Insulin receptor (P06213 28-758 limits assumed): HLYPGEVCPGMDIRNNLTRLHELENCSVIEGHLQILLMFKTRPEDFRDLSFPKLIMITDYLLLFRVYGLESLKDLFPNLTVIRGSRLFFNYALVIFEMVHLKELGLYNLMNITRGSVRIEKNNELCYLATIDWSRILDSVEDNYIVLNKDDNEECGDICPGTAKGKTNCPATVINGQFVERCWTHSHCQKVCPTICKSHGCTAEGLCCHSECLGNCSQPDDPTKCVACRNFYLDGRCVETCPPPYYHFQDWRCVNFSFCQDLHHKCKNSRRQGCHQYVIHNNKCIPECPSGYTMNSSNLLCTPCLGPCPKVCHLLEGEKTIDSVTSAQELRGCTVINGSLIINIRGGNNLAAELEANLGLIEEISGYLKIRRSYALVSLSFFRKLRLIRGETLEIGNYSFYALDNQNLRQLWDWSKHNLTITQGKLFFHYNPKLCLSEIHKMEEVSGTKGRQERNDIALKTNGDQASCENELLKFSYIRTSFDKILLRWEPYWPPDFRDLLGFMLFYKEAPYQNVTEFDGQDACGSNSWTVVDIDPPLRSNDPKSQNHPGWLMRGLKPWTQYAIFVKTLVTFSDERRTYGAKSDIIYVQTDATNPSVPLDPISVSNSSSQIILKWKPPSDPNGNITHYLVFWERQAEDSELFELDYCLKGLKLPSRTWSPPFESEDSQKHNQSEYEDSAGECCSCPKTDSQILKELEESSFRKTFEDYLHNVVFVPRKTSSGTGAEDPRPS
Sequence of Insulin receptor (P06213 763-1382 limits assumed): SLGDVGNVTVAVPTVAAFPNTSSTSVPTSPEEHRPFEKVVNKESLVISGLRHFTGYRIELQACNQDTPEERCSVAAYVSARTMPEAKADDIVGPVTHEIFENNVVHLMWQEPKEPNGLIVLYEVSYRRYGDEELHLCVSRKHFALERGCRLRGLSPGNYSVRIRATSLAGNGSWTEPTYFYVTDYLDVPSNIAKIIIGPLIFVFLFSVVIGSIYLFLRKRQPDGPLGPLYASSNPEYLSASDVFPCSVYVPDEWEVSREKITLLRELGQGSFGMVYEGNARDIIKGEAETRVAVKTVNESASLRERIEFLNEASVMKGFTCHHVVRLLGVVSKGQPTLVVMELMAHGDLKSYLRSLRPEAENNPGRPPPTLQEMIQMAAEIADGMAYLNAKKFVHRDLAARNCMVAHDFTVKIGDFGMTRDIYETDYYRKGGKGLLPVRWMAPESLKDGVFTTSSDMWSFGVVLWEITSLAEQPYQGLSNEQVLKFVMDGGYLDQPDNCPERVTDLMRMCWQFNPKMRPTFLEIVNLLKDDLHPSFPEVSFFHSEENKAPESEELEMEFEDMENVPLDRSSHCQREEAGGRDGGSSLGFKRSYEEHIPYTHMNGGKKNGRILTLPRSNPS
Sequence of NT-3 growth factor receptor (Q16288 whole entry): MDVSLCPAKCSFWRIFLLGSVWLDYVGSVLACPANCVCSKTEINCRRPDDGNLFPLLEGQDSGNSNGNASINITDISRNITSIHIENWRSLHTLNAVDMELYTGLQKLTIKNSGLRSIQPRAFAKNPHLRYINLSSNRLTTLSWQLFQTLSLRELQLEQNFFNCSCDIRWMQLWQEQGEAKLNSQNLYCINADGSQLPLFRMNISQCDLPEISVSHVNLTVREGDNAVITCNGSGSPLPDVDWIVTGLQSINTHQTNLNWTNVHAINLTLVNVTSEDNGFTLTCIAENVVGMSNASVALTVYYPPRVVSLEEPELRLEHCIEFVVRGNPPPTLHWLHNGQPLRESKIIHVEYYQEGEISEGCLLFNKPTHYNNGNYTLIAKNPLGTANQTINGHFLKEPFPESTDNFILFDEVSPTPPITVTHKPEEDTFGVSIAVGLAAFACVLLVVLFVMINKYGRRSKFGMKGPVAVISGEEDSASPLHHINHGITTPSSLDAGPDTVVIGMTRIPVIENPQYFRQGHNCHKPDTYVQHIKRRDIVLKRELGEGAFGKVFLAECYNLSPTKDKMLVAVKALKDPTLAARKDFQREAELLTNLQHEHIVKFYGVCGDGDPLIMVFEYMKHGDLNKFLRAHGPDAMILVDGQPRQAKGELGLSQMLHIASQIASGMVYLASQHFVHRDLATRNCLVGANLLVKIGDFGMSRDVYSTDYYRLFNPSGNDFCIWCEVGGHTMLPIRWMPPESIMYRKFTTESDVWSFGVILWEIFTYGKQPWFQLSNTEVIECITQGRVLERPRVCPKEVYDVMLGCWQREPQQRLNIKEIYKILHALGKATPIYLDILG
Sequence of Tyrosine-protein kinase JAK2 (O60674 whole entry): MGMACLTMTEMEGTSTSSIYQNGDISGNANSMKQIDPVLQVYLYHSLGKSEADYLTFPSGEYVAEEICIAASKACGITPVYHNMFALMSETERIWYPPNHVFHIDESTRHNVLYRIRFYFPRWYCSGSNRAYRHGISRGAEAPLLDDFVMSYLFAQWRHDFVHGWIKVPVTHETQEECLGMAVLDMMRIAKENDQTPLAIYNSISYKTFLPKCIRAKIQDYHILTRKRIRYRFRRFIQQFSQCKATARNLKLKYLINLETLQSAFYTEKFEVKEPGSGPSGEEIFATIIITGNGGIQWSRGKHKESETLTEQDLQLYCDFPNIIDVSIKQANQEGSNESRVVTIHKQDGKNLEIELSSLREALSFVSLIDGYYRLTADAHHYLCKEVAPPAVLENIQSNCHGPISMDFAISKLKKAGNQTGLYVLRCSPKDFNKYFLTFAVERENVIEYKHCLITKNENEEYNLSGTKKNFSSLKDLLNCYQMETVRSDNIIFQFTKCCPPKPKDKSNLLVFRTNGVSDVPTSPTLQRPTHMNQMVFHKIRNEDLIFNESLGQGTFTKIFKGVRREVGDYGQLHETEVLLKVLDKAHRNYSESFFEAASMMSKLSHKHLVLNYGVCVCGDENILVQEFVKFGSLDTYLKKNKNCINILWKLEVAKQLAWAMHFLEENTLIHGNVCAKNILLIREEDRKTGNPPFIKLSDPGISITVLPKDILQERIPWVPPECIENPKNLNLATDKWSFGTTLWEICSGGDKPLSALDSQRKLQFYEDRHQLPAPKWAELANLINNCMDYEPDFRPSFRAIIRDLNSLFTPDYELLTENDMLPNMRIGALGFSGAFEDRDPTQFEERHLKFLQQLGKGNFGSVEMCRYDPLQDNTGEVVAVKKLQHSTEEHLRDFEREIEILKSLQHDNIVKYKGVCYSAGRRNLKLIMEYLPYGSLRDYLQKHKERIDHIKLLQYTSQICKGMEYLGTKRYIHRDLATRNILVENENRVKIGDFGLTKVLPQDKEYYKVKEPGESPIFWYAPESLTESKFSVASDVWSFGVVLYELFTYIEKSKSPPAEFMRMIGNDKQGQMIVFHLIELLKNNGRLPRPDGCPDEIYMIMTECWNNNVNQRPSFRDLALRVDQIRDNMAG
Sequence of Cyclin-dependent kinase 1 (P06493 whole entry): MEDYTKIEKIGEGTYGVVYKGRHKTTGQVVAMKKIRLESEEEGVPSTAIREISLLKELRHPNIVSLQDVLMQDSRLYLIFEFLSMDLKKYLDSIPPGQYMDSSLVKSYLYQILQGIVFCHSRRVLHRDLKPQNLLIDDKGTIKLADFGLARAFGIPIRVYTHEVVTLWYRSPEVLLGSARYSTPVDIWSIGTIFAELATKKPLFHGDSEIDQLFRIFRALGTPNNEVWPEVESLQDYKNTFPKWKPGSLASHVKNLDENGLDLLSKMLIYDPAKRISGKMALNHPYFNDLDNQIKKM

- IC50 [1]: > 10 µM
- fold induction at 1 h, 1 µM (CYP3A4): 3
- IC50 [3]: > 10 µM
- Vd [4]: 0.587 L/kg
- IC50 [5]: > 10 µM
- IC50 [7]: > 10 µM
- AUC [8]: 11000 ng·h/mL
- Vd [9]: 1.69 L/kg
- IC50 [10]: > 10 µM
- IC50 [11]: > 10 µM
- clearance [12]: 1.48 mL/min/kg
- IC50 [14]: > 10 µM
- IC50 [15]: 0.002 µM
- IC50 [16]: > 1 µM
- IC50 [17]: > 10 µM
- IC50 [19]: 0.0012 µM
- Cmax [21]: 763 ng/mL
- half-life [22]: 9.01 h
- half-life [23]: 7.49 h
- IC50 [24]: > 10 µM
- half-life [25]: 12.7 h
- IC50 [26]: 0.0028 µM
- bioavailability [28]: 97.5%
- bioavailability [31]: 38%
- IC50 [32]: 0.3 µM
- clearance [33]: 1.07 mL/min/kg
- half-life [34]: 15.2 h
- IC50 (Insulin receptor): > 10 µM
- IC50 [36]: > 10 µM
- AUC [37]: 5950 ng·h/mL
- Cmax [38]: 581 ng/mL
- IC50 [39]: > 10 µM
- IC50 [40]: > 10 µM
- IC50 [41]: > 10 µM
SMILES: Cc1cc(C(=O)NC(C)(C)C)cc(C#Cc2ccc3c4c(oc3c2)C(C)(C)c2cc(NS(C)(=O)=O)ccc2C4=O)n1
- inhibition in vivo at 0.63 mg/kg (NIH3T3 [2]): 16%
- inhibition in vivo at 2.5 mg/kg (NIH3T3 [6]): 102%
- Activity (NIH3T3 [13]): 26%
- inhibition in vivo at 10 mg/kg (NIH3T3 [18]): 105%
- inhibition in vivo at 0.16 mg/kg (NIH3T3 [20]): 14%
- Activity (NIH3T3 [27]): 72%
- Activity [29]: Non-Toxic
- inhibition in vivo at 10 mg/kg [30]: 171%
- IC50 (NIH3T3 [35]): 0.0084 µM
